# Measurements published in patent publication US7914780B1, “Aminopeptidase A (APA) targeting peptides for the treatment of cancer” (Board of Regents, the University of Texas System, priority 2000, dated 2011).
# Peptide text beside a SMILES is read from it.
# Columns and labels:
# [1] = molecular target: T1, APA-transfected SK-RC-49 cells (Homo sapiens, UniProt Q07075); assay: Cell surface panning of CX3CX3CX3C phage display library on APA-transfected cells; type: binding; details: for Round 2 (%) - share of randomly selected phage clones displaying the sequence: after second round of panning on SK-RC-49/APA cells
# T1 construct: stably transfected with a mammalian expression vector encoding the full-length APA cDNA; expressed in transfected cells; host or cells: SK-RC-49 renal carcinoma cells (SK-RC-49/APA)
# Method: Briefly, 10^10 transducing units (TU) of a CX3CX3CX3C (SEQ ID NO:14; C, cysteine; X, any amino acid residue) phage display random library are pre-absorbed on SK-RC-49 parental cells. The pre-cleared CX3CX3CX3C phage library (˜10^10 TU) is added to 106 detached APA-transfected SK-RC-49 cells in binding medium (20 mM HEPES, 2% FCS in DMEM). Cell panning was performed at 4° C. to minimize post-binding events such as receptor-mediated internalization (Giordano et al., 2001). Cells were washed with binding medium and cell bound phage were recovered and amplified by infection of K91Kan E. coli. Serial dilutions were plated on Luria-Bertani (LB) agar plates with tetracycline and kanamycin. The number of TU was determined by bacterial colony counting.
# The inventors pre adsorbed 1010 transducing units (TU) of a CX3CX3CX3C (C, cysteine; X, any amino acid residue; SEQ ID NO:14) phage display random library on SK-RC-49 parental cells. Next, the pre-cleared CX3CX3CX3C (SEQ ID NO:14) phage library (˜1010 TU) was added to 106 detached APA-transfected SK-RC-49 cells in binding medium (20 mM HEPES, 2% FCS in DMEM). Cell panning was performed at 4° C. to minimize post-binding events such as receptor-mediated internalization (Giordano et al., 2001). Cells were washed with binding medium and cell bound phage were recovered and amplified by infection of K91 Kan E. coli. Serial dilutions were plated on Luria-Bertani (LB) agar plates with tetracycline and kanamycin. The number of TU was determined by bacterial colony counting.
# To identify peptides capable of binding to APA, the inventors screened APA-transfected cells with a phage display library (Smith and Scott, 1993). The inventors stably transfected SK-RC-49 renal carcinoma cells with a vector expressing full-length APA cDNA. APA functionality was verified in transfected cells by an enzyme activity assay specific for APA.
# SK-RC-49/APA cells = molecular target: T2, SK-RC-49/APA cells (Homo sapiens, UniProt Q07075); assay: Phage binding assay on SK-RC-49/APA cells versus SK-RC-49 cells; details: for Phage binding to SK-RC-49/APA cells relative to SK-RC-49 cells: individual phage clones
# T2 construct: stably transfected with a mammalian expression vector encoding the full-length APA cDNA; expressed in transfected cells; host or cells: SK-RC-49 renal carcinoma cells (SK-RC-49/APA)
# Method: Binding assays were performed on cells with 109 TU phage input. Increasing concentrations of synthetic […] (SEQ ID NO:2) or control peptides were used to evaluate competitive inhibition of phage binding. APA was immunocaptured on microtiter wells with RC38 and incubated with 109 TU of phage in 3% BSA in PBS. Wells were washed with 1% BSA, 0.01% Tween-20 in PBS and phage were recovered by infection of K91kan E. coli. Serial dilutions were plated on LB agar plates containing tetracycline and kanamycin. The number of TU was determined by bacterial colony counting.
# Phage displaying enriched peptide motifs were tested individually for APA binding. Phage displaying the inserts […] (SEQ ID NO:3), […] (SEQ ID NO:1) or […] The inventors synthesized peptides containing APA-binding motifs (consensus sequence […] (SEQ ID NO:2); Table 1). Binding of phage displaying […] Binding of […] Whether the selected peptides would bind to the isolated APA protein was also evaluated. […] The inventors used phage displaying […] (SEQ ID NO:3), […] (SEQ ID NO:4), or […] (SEQ ID NO:1) in binding assays to the immunocaptured APA.
# [2] = tested on: MDA-MB-435 human breast carcinoma-derived tumor xenografts; assay: Tumor homing of phage in vivo; parameters: species or system nude mice; details: intravenous
# Method: Nude mice bearing tumor xenografts derived from MDA-MB-435 human breast cancer cells were generated as described (Arap et al., 1998). 109 TU of […] (SEQ ID NO:8)-displaying phage or fd-tet phage were injected intravenously to anesthetized mice. Phage were allowed to circulate for 5 minutes and the animals were perfused through the left ventricle of the heart with DMEM. The tumor and control organs were dissected and equal amounts of tissue were homogenized. Homogenates were washed with ice-cold DMEM containing a protease inhibitor cocktail (Sigma; St. Louis, Mo.) and 0.1% BSA. Tissue-bound phage were recovered as described above the cell panning. Tissue samples from the injected animals were fixed, sectioned at 5 μm and stained with an anti-M13 antibody.
# The inventors next evaluated the ability of APA binding peptides to home to tumor blood vessels in vivo. Phage were administered intravenously to nude mice bearing human breast carcinoma MDA-MB-435-derived xenografts. Phage homing was quantified by recovery from tissue homogenates by bacterial infection. […] […] Homing of […] (SEQ ID NO:3) phage to tumor vasculature was confirmed by immunohistochemical staining of phage on tissue sections.
# HMECs [3] = assay: Chemotaxic (Boyden chamber) cell migration assay; type: cell-based, human
# Method: Cell migration assays were performed in a 48-well Boyden chamber (NeuroProbe; Gaithersburg, Md.) as described (Bussolino et al., 1995). Indicated concentrations of […] (SEQ ID NO:2) peptide or negative control peptide (1 mM) were placed in the lower chamber compartment in complete M199 medium. Subconfluent HMECs were harvested and 1×10^5 cells were seeded in the upper chamber compartment in complete M199 medium. Cells were allowed to migrate for 5 h at 37° C. in a humidified 5% CO2 atmosphere. Filter was removed and cells on the upper side were scraped off. Migrated cells were fixed and Giemsa-stained.
# (§1) Because of the enzymatic inhibitory activity of APA-binding peptides, the inventors reasoned that they might affect endothelial cell function. The inventors correlated the effect of APA inhibition by the […] (SEQ ID NO:2) peptide on the migration and proliferation of endothelial cells. The inventors used human dermal microvascular endothelial cells (HMEC) in which the APA expression was verified by immunostaining with RC38 and the APA activity by its specific enzyme assay. […] (SEQ ID NO:2) peptide suppressed the migration of HMECs in the Boyden chamber assay (FIG. 3B). Suppression in cell migration was dose-dependent and commensurate with inhibition of APA enzymatic activity. […] Similarly, proliferation of HMECs was suppressed by […] (SEQ ID NO:2) (˜40% at 1 mM) in a dose-dependent manner (FIG. 3C).
# aminopeptidase N = aminopeptidase N (Homo sapiens, UniProt P15144); assay: Aminopeptidase N enzymatic activity; type: biochemical
# EF43-fgf4-derived tumors = assay: Experimental therapy of EF43-fgf4-derived tumors; type: in vivo, Balb/c mice
# Method: For experimental therapy, Balb/c mice bearing EF43-fgf4-derived tumors were established and tumor volumes determined as described (Deroanne et al., 1997; Hajitou et al., 2001). Treatments in tumor-bearing mice were started 5 (peptides) to 7 days (antibodies) after cell inoculation (10^5 cells/mouse). Reagents were administered by ip and sc routes.
# Tumor-bearing mice received vehicle, [sequence] (SEQ ID NO:2) or control peptides and tumors were monitored (FIG. 7B).
# The inventors used an established regimen of two anti-APA monoclonal antibodies (ASD-37/41) with synergistic APA inhibitory properties (Assmann et al., 1992, Mentzel et al., 1999) on the same animal model. Tumor-bearing mice received vehicle, ASD-37/41, or isotype control IgG and tumors were monitored (FIG. 7C).
# HMECs [4] = assay: Three-dimensional cell culture on Matrigel (cord/tube formation); type: cell-based, human
# Method: Matrigel (BD Biosciences; Bedford, Mass.) was added to 48-well tissue culture plates and allowed to solidify at 37° C. HMECs (˜10^4 cells) were added to the wells and allowed to adhere to the Matrigel for 30 minutes at 37° C. Cell medium was replaced containing the indicated concentrations of […] (SEQ ID NO:2) or a negative control peptide (both at 1 mM) in complete medium. Plates were examined and photographed after 16 hours.
# To determine whether inhibition of APA enzyme activity with […] (SEQ ID NO:2) peptide would affect angiogenesis, the effect of the peptide was tested in vitro and in vivo. First, the inventors evaluated the ability of HMECs to differentiate into capillary-like structures characteristic of angiogenesis in the presence of […] (SEQ ID NO:2) on a gel of reconstituted basement membrane matrix (Matrigel). The formation of cord/tube-like structures was progressively impaired by increasing concentrations of […] (SEQ ID NO:2) peptide, relative to the network formation in controls without peptide (FIG. 4A, upper left panel) or with an unrelated control peptide at 1 mM concentration (FIG. 4A, upper right panel). The number and length of capillary-like branching structures was reduced at 0.3 mM […] […]
# HMECs [5] = assay: Endothelial cell growth assay (crystal violet); type: cell-based, human
# Method: HMECs were seeded (˜10,000 cells/well) and allowed to attach for 24 hours in complete M199 medium (Sigma; St. Louis, Mo.). The indicated concentrations of […] (SEQ ID NO:2) or 1 mM negative control peptide were added to the cells in complete M199 medium. HMECs were then serially fixed in 2.5% glutaraldehyde, stained with 0.1% crystal violet in 20% methanol, and solubilized in 10% acetic acid. Cell growth was evaluated by measuring absorbance at 590 nm. A calibration curve with linear correlation between absorbance and cell number (103-105 HMECs) was used for the assay.
# as §1
# [6] = tested on: VEGF-induced CAM neovascularization; assay: Chick embryo chorioallantoic membrane (CAM) assay; type: in vivo, chicken
# Method: Fertilized chicken eggs were incubated in constant humidity at 37° C. for 3 days. Two to three ml of albumin was removed through a square opening to detach the developing CAM. The opening was sealed with a glass plate and the eggs were incubated for 5 days. […] […] CAMs were examined daily until day 12, photographed in ovo with a stereomicroscope and emerging capillaries were counted (Ribatti et al., 1997).
# In this in vivo model, neovascularization is stimulated with VEGF adsorbed on to a gelatin sponge placed on the CAM. […] CAMs were examined on E12 and neovascularization was quantified by counting the number of emerging capillaries (FIG. 4B). Significant induction of neovascularization (57.0±1.41 blood vessels) was found when a sponge with VEGF was placed on the CAM compared to a sponge with no growth factors (12.0±2.8 blood vessels; t-test, P<0.01). […]
# [7] = competition with synthetic peptide
# [8] = 1 mM peptide in VEGF-adsorbed sponge, E12
# [9] = negative control peptide (1 mM)
# T2 sequence (Q07075 whole entry): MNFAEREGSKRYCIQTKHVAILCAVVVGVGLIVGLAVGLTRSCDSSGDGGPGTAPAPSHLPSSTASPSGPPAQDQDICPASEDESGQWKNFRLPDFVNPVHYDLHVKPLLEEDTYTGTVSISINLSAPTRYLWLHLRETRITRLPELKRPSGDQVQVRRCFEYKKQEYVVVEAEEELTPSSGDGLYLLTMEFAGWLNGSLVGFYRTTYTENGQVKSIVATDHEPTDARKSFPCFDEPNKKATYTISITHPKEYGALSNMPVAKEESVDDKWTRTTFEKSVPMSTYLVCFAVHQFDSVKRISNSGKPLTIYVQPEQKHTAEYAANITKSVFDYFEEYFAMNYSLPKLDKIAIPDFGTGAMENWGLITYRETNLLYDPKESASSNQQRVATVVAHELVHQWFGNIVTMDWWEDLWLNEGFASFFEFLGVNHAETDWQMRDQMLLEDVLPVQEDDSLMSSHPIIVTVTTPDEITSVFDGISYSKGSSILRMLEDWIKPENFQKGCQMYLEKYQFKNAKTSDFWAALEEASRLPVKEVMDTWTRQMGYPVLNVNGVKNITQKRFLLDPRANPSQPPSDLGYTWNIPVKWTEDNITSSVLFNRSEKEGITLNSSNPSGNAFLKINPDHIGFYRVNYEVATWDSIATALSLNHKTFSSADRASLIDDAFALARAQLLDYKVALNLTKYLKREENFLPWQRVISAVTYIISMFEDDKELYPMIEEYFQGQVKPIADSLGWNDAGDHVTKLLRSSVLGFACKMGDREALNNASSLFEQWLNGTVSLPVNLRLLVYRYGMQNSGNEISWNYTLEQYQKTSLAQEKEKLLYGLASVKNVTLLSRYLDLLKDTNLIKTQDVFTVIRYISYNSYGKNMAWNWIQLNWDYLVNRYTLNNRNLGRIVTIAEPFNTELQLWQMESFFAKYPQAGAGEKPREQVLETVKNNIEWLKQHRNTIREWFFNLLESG
# T1 sequence (Q07075 whole entry): as above
# aminopeptidase N, sequence (P15144 whole entry, species assumed): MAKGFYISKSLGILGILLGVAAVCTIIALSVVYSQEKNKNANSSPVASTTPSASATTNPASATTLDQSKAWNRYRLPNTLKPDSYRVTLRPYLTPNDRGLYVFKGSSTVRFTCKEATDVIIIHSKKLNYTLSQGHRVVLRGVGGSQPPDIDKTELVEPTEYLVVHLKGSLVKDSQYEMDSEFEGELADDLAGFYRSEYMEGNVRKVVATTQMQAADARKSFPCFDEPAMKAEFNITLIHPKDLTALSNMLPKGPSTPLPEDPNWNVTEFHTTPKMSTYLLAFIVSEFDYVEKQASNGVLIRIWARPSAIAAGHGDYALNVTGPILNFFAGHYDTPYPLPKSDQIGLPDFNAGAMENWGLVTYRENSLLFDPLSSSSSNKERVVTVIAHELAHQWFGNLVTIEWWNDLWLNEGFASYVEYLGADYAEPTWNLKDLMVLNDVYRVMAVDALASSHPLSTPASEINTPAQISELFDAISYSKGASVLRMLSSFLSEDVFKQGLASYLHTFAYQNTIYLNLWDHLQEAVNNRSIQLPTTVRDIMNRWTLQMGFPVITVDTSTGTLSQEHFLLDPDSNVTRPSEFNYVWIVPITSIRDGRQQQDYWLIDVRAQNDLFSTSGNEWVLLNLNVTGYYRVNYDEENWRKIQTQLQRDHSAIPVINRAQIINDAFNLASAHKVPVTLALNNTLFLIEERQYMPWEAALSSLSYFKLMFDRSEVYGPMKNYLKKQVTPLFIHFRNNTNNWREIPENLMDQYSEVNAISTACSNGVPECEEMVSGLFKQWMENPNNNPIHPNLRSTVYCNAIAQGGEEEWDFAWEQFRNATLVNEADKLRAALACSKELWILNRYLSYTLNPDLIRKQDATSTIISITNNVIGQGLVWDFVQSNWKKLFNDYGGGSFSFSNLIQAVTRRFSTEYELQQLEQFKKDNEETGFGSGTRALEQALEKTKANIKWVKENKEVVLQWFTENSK
molecule,measurement,setting,value
CPKVCPRECESNC (phage-displayed),Round 2 (%) - share of randomly selected phage clones displaying the sequence,[1],5%
same,Effect of synthetic […] peptide on phage binding to SK-RC-49/APA cells,SK-RC-49/APA cells; [7],inhibited by the synthetic peptide
same,Phage binding to SK-RC-49/APA cells relative to SK-RC-49 cells,SK-RC-49/APA cells,preferentially bound to SK-RC-49/APA cells
same,Phage homing by recovery from tissue homogenates,[2]; tumor versus control organs (brain),enriched in tumors compared to control organs
same,Phage homing by immunohistochemical staining of tissue sections,[2]; tumor versus normal brain blood vessels,Strong phage staining was observed in tumor blood vessels
CC[C@H](C)[C@H](NC(=O)[C@H](CO)NC(=O)[C@H](CCC(=O)O)NC(=O)[C@H](CS)NC(=O)[C@H](CCC(=O)O)NC(=O)[C@H](CCCNC(=N)N)NC(=O)[C@@H]1CCCN1C(=O)[C@@H](N)CS)C(=O)N[C@@H](CS)C(=O)O (H-CPRECESIC-OH),Inhibition of cell migration,HMECs [3]; 100 μM peptide,significant inhibition
same,Suppression in cell migration,"HMECs [3]; 1 mM peptide, 5 h",Up to 60%
same,Effect on enzymatic activity of aminopeptidase N,aminopeptidase N,did not affect
same,Tumor volume,"EF43-fgf4-derived tumors; peptides 250 μg/mouse/dose, end of two weeks","1,366±190 mm^3"
same,Number and length of capillary-like branching structures,HMECs [4]; 0.3 mM peptide,reduced
same,Cell interconnections and capillary network organization,HMECs [4]; 1 mM peptide,severely lost
same,Inhibition of cell proliferation,HMECs [5]; 0.3 mM peptide,Inhibition of cell proliferation was also observed
same,Suppression of proliferation of HMECs,HMECs [5]; 1 mM peptide,~40%
same,Effect on cell proliferation,HMECs [5]; peptide concentrations lower than 0.3 mM,no significant effect
same,Effect on number or branching of the growing blood vessels,[6]; 0.1 mM and 0.3 mM peptide,did not affect
same,Inhibition of VEGF-induced CAM neovascularization,[6]; [8],40%
same,Number of emerging capillaries,[6]; [8],35.5±1.4 blood vessels
CGTGCAVECEVVC,Round 2 (%) - share of randomly selected phage clones displaying the sequence,[1],5%
CSMMCLEGCDDWC (phage-displayed),Round 2 (%) - share of randomly selected phage clones displaying the sequence,[1],5%
CAVACWADCQLGC,Round 2 (%) - share of randomly selected phage clones displaying the sequence,[1],5%
"GACVRLSACGA [negative control peptide, unrelated synthetic peptide used as a negative control unless otherwise indicated, reference compound]",Effect on cell migration,HMECs [3]; [9],affected neither cell migration nor proliferation
same,Effect on cell proliferation,HMECs [5]; [9],affected neither cell migration nor proliferation
same,Number of emerging capillaries,[6]; [8],56.5±2.12 blood vessels
CLGQCASICVNDC,Round 2 (%) - share of randomly selected phage clones displaying the sequence,[1],5%
same,Effect of synthetic […] peptide on phage binding to SK-RC-49/APA cells,SK-RC-49/APA cells; [7],not affected by the synthetic peptide
same,Phage binding to SK-RC-49/APA cells relative to SK-RC-49 cells,SK-RC-49/APA cells,preferentially bound to SK-RC-49/APA cells
CSGLCTVQCLEGC (phage-displayed),Round 2 (%) - share of randomly selected phage clones displaying the sequence,[1],5%
CYNLCIRECESICGADGACWTWCADGCSRSC (phage-displayed),Round 2 (%) - share of randomly selected phage clones displaying the sequence,[1],50%
same,Round 3 (%) - share of randomly selected phage clones displaying the sequence,[1]; after third round of panning on SK-RC-49/APA cells,100%
same,Effect of synthetic CPRECESIC peptide on phage binding to SK-RC-49/APA cells,SK-RC-49/APA cells; [7],inhibited by the synthetic peptide
same,Phage binding to SK-RC-49/APA cells relative to SK-RC-49 cells,SK-RC-49/APA cells,preferentially bound to SK-RC-49/APA cells
CPRECESN,Efficacy in vivo,"EF43-fgf4-derived tumors; mouse, in vivo",showed efficacy in vivo
